Data as given in US6670481B2, “Oxiranecarboxylic acids for the treatment of diabetes” (Medicone AG Gesellschaft fur Molekularbiologische …, priority 1997, dated 2003).

Key:
Format in all cases: in vivo, rat (male Sprague-Dawley)
[1] = test system: insulin-resistant rats (after 24 hour fasting); test: Blood glucose-lowering effect in insulin-resistant (24 hour fasted) rats; settings: for (A) Glucose (%), change vs placebo-treated control animals: blood, rats fasted 24 hours, 2 hours after oral administration of 100 μmol/kg, mean of 10 animals; for Superiority compared to the prior art with respect to lowering glucose after fasting: fasting as experimental model of insulin resistance, result in words
Method: The compounds of the formula I according to the invention lower the glucose concentration in the blood of rats which have been made insulin-resistant by prolonged fasting.
(§1) What is stated are the changes in per cent of the animals which have been treated with substance, compared to control animals which were treated with placebo, calculated from the mean values of in each case 10 individual values.
(§2) The test animals used were male Sprague-Dawley rats from the SPF breed Ivanovas (Kisslegg, Germany) having a body mass of 255-400 g. The animals were kept in a conventional manner, 4 animals each in cages made of Makrolon (22×38 cm) in a climatized room (21-23 degrees Celsius) with a fixed day/night rhythm (7a.m/7p.m) and a regulated relative atmospheric humidity of 55-60%. The animals received a maintenance diet—Altromin 1320 from Altromin (Lage, Germany)—and water ad libitum.
To determine the effect of the substance on blood glucose, feed was withdrawn 24 hours before the administration of the substance to produce an insulin-resistant condition.
(§3) The animals were divided at random in 5 groups of 10 animals each and marked. The substances were administered to the animals in the form of a neutral, aqueous emulsion (1 part by weight of substance+2 parts by weight of Cremophor EL—an emulsifier from BASF AG, Germany—) in a volume of 10 ml/kg of body weight using a stomach tube.
To determine the glucose in the blood, 50 μl of blood were collected from the retrobulbular venousplexus 2 hours after the administration of the substance, using a glass capillary, from animals which had been fasting for 24 hours, and the blood was deproteinated in ice-cold perchloric acid (0.66 mol/l). After centrifugation, the glucose was determined in the supernatant using enzymatic standard methods.
Enzymatic test with hexokinase/[…], test combination from Boehringer Mannheim, Germany.

[2] = test system: fed, healthy rats; test: Triglyceride-lowering effect in blood plasma of fed, healthy rats; settings: for (B) Triglycerides (%), change vs placebo-treated control animals: blood plasma, fed healthy rats, oral 100 μmol/kg for 16 days, 24 hours after last administration, mean of 10
Method: as §1, §2, §3
(§4) To determine the parameters triglycerides, cholesterol and the activity of the glutamic-pyruvic transaminase (GPT), blood plasma was used. The blood plasma was obtained as an erythrocyte-free supernatant 15 minutes after venous blood sampling into heparinized Eppendorf reaction vessels by centrifugation (2×2 minutes at 16,000 rpm in an Eppendorf centrifuge).
Enzymatic test with lipase/glycerokinase, test combination from Boehringer Mannheim, Germany.

[3] = test system: fed, healthy rats; test: Cholesterol-lowering effect in blood plasma of fed, healthy rats; settings: oral 100 μmol/kg for 16 days, 24 hours after last administration, mean of 10
Method: as §1, §2, §3, §4
Enzymatic colour test (CHOD-PAP method), test combination from Boehringer Mannheim, Germany.

[4] = test system: healthy, fed rats; test: Increase in activity of liver enzyme glutamic-pyruvate transaminase (GPT) in blood plasma; settings: oral equimolar doses for 16 days, 24 hours after last administration
Text: as §2, §3, §4
Kinetic enzyme test, test combination from Boehringer Mannheim, Germany.

[5] = test system: healthy, fed rats; test: Increase of relative weight of the heart (cardiac hypertrophy); settings: weight of heart/100 g body weight, oral equimolar doses for 16 days, 24 hours after last administration
Text: as §2, §3
The animals were killed by decapitation and exsanguination, and the weight of the heart muscle, which had been freed from the right atrium, was determined by weighing and based on 100 g of body. weight.

[6] = test system: healthy, fed rats; test: Pharmacological safety index; settings: for (C) Safety index (%): lowering of glucose + triglycerides + cholesterol in per cent divided by increase of GPT activity + relative heart weight in per cent, higher = safer; for Safety index compared to the prior art: result in words, from Table 2
Text: The higher the index, the greater the safety of the substance.

Row | SMILES | (A) Glucose (%), change vs placebo-treated control animals [1] | (B) Triglycerides (%), change vs placebo-treated control animals [2] | (C) Cholesterol (%), change vs placebo-treated control animals [3] | (A) GPT activity (%), increase [4] | (B) Relative weight of the heart (%), increase [5] | (C) Safety index (%) [6] | Superiority compared to the prior art with respect to lowering glucose after fasting [1] | Safety index compared to the prior art [6] | Effect compared to the prior art, taking into account the triglyceride- and cholesterol-lowering effect ([2]; result in words, from Tab. 1)
1 | CCOC(=O)C1(CCCCCCOc2ccc(Cl)cc2)CO1 (stereo not drawn) [Substance 1] | −18% | −50% | −15% | 8% | 14% | 3.77% |  |  | 
2 | CCOC(=O)C1(CCCCCCOc2ccc(OC(F)F)cc2)CO1 (stereo not drawn) [Substance 2] | −27% | −69% | −13% | 5% | 14% | 5.74% | particularly pronounced | superior to the prior art | 
3 | CCOC(=O)C1(CCCCCOc2ccc(OC(F)F)cc2)CO1 (stereo not drawn) [Substance 3] | −27% | −73% | −26% | 12% | 11% | 5.48% | particularly pronounced | superior to the prior art | superior to the prior art
4 | CCOC(=O)C1(CCCCCOc2ccc(C(C)=O)cc2)CO1 (stereo not drawn) [Substance 4] | −7% | −41% | −8% | −9% | −2% | 56% |  | particularly superior to the prior art | 
